According to patent US5225425A, “Bis-aryl amide antagonists of platelet activating factor” (American Cyanamid Company, priority 1992, dated 1993):
“And” between values parts separate entries of the source, which are not always exact repeats. Identical values can stand only once. Counter-ions that a name gives are not always drawn. Like-named read-outs stand apart in the source and are kept apart here.

Legend:
[1] = biological target: T1, PAF receptor (Oryctolagus cuniculus, UniProt G1TEI7); assay: Inhibition of PAF induced platelet aggregation in rabbit platelet rich plasma; assay type: cell-based, rabbit (New Zealand White); conditions: for inhibition at 10 µM: dose .00001 M
T1 construct: centrifuged at 800 rpm for 10-15 minutes at room temperature to recover the platelet rich plasma (PRP); from tissue; host or cells: platelets in platelet rich plasma from blood of male New Zealand White rabbits
T1 sequence (G1TEI7 1-342): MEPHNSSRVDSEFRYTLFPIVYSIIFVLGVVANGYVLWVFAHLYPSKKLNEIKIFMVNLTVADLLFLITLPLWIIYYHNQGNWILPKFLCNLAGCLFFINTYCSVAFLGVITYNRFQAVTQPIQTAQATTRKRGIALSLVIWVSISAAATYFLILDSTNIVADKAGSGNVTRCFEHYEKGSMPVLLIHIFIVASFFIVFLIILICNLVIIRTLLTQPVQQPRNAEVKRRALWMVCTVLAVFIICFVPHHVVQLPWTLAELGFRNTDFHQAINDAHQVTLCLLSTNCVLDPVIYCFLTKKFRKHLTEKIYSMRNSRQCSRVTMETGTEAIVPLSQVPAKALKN
Procedure: Test compounds are evaluated as PAF receptor antagonists in vitro by measuring inhibition of PAF (platelet activating factor) induced platelet aggregation. Platelet aggregation is measured by a modification of the method described in […], et. al., J. Med. Chem., 27 1174, 1984. […] All syringes and pipets are plastic. The blood is gently mixed and immediately centrifuged at 800 rpm for 10-15 minutes at room temperature to recover the platelet rich plasma (PRP). Platelet poor plasma (PPP) is prepared by centrifuging PRP at 2800 rpm for 10 minutes at room temperature. Dilutions (1:3000) of PRP in Isotone diluent are made and platelet counts are determined on a Coulter Thrombocounter which is standardized with platelet reference standards (Interscience Platelet Control, Portland, Oreg.). PRP platelet counts are adjusted to approximately 400,000-500,000 platelets/μl by the addition of PPP. L-PAF (Platelet Activating Factor) is obtained from Calbiochem. […] All solutions are made up in plastic tubes, stored on ice and protected from heat and light. Solutions are prepared fresh or frozen at -20° C. and used within 48 hours. Incubation mixtures consisted of 400 μl PRP, 50 μl of saline diluent or test compound and 50 μl of PAF agonist. More specifically, 400μl of PRP is stabilized in a cuvette for 1-2 minutes at 37° C. in the aggregometer to achieve a stable baseline, then 50 μl of saline or test compound is added and incubated for 5 minutes before addition of the challenge concentration of pAF. A submaximal concentration is determined from the dose response curve for PAF for that experiment. In general, the challenge concentration is 5E-8 or 1E-7M. Aggregation is monitored for 5 minutes. Samples containing test compound or diluent are run simultaneously for comparison. Test compounds are initially evaluated at a screening concentration of 1E-5M. […] The recording equipment consists of a dual channel Chronolog aggregometer connected to a dual channel 10MV full scale deflection Omniscribe chart recorder (Houston Instruments). The chart recorder is calibrated daily with the use of a suspension of Bio-Rad latex beads (S-X 12 400 mesh) which has a density slightly greater than rabbit PRP. […] These limits defined a full scale deflection. The aggregation traces are analyzed by a digitizing method (C. Kohler and B. Zoltan, J. Pharm. Methods, 12, 113, 1984) with x, y coordinate data stored in a computer file. A suitable program computes parameters of interest such as the magnitude of aggregation.

[2] = system: PAF; assay: PAF induced lethality in mice; assay type: in vivo; conditions: PAF 150 μg/kg IV
Procedure: PAF given I.V. to mice causes an immediate hypotensive shock leading to death in 1 hour or less. […] Animals alive after 2 hours are counted and the activity of test compounds expressed as % survival corrected for any control (saline treated) animals which survived the PAF challenge.

[3] = system: LPS endotoxin; assay: Low dose, chronic mouse endotoxemia (LPS endotoxin); assay type: in vivo, Male Balb/c mice; conditions: day 6, LPS 20 mg/kg i.p.
Excerpt: Endotoxin administration produces a shock-like state characterized by vascular permeability changes, hypotension, neutropenia, thrombocytopenia,multiple organ damage and death. The major mediators released after endotoxin injection are TNF (tumor necrosis factor), PAF (platelet activating factor) and […] (interleukin I). PAF administration mimics the signs and symptoms of endotoxin induced shock and death and endotoxin also induces the release of PAF. Therefore, the effects of endotoxin should be blocked with a PAF antagonist.
Male Balb/c mice (approximately 20 g) are obtained from Charles River Laboratories and used after a one-two week acclimation period. Animals are given (ip) test compound dissolved in saline or water (sonicated and heated) at different time intervals prior to and after the ip injection of endotoxin (usually 2 hours before LPS endotoxin, and 3-4 hours after). Sigma E. Coli endotoxin, 0111:B4, phenol extraction, catalog #L2630 is used for these studies.
For the chronic endotoxin shock model, a lower dose of endotoxin is administered (generally 15 to 20 mg/kg i.p). This dose gives an LD80 in two to four days following LPS administration. Test compounds are given 2 hours before LPS and 3-4 hours after on the first day, followed by 3 or 4 consecutive days of BID dosing. The number of survivors in each group is recorded each day for a period of 5 to 7 days.
All mice challenged with LPS endotoxin = 20 mg/kg i.p.
CL test cpd given 2 hours before and 3-4 hours after LPS challenge on day
0, followed by BID dosing for 3-4 days.

[4] = PAF challenge 5.0000E-08 M, read-out: % INH of PAF induced platelet aggregation
[5] = PAF challenge 1.0000E-08 M, read-out: % INH of PAF induced platelet aggregation
[6] = PAF challenge .0000005 M, read-out: % INH of PAF induced platelet aggregation
[7] = PAF challenge 5E-9 M, read-out: % INH of PAF induced platelet aggregation

## CCCCCCCCCCCCCCOc1ccc(CC(=O)Nc2cccc(C[n+]3ccn4ccccc43)c2)cc1
[1]; PAF challenge 5.0000E-08 M
  IC50: 1.5 µM
[1]; [4]
  inhibition at 10 µM: 91%

## CCCCCCCCCCCCCCOc1ccc(CN(C(C)=O)c2cccc(C[n+]3ccc(C)c(C)c3)c2)cc1 [1-[[3-[acetyl[[4-(tetradecyloxy)phenyl]methyl]amino]phenyl]methyl]-3,4-dimethyl-pyridinium bromide]
[1]; PAF challenge 5.0000E-08 M
  IC50: 12 µM
[1]; [4]
  inhibition at 10 µM: 52%

## CCCCCCCCCCCCCCOc1ccc(CC(=O)Nc2cccc(-n3cc[n+](C)c3C)c2)cc1 [2,3-dimethyl-1-[3-[[[4-(tetradecyloxy)phenyl]acetyl]amino]phenyl]1H-imidazolium iodide]
[1]; PAF challenge 5.0000E-08 M
  IC50: 2.47 µM
[1]; [4]
  inhibition at 10 µM: 80%

## CCCCCCCCCCCCCCOc1ccc(CC(=O)Nc2ccc(-n3cc[n+](C)c3C)cc2)cc1 [2,3-dimethyl-1-[4-[[[4-(tetradecyloxy)phenyl]acetyl]amino]phenyl]1H-imidazolium iodide]
[1]; PAF challenge 5.0000E-08 M
  IC50: 4.51 µM
[1]; [4]
  inhibition at 10 µM: 62%

## CCCCCCCCCCCCCCOc1ccc(CC(=O)Nc2cccc(C[n+]3cc(C)cc(C)c3)c2)cc1 [3,5-Dimethyl-1-[[3-[[[4-(tetradecyloxy)phenyl]acetyl]amino]phenyl]methyl]pyridinium bromide]
[1]; [4]
  inhibition at 10 µM: 84%

## CCCCCCCCCCCCCCOc1ccc(CC(=O)Nc2cccc(-c3scc[n+]3C)c2)cc1 [3-Methyl-2-[3-[[[4-(tetradecyloxy)phenyl]acetyl]amino]phenyl]thiazolium chloride]
[1]; PAF challenge 5.0000E-08 M
  IC50: 12 µM
[1]; [4]
  inhibition at 10 µM: 46%

## CCCCCCCCCCCCCCCCOc1ccc(OCC(=O)Nc2ccccc2C[n+]2csc(C)c2)cc1 [3-[[2-[[[4-(Hexadecyloxy)phenoxy]acetyl]amino]phenyl]methyl]-5-methyl-thiazolium bromide]
[1]; PAF challenge 1.0000E-08 M
  IC50: 11.2 µM
[1]; PAF challenge .0000005 M
  IC50: 3.8 µM
[1]; [5]
  inhibition at 10 µM: 60%
[1]; [6]
  inhibition at 10 µM: 83%

## CCCCCCCCCCCCCCOc1ccc(CCN(C(C)=O)c2cccc(C[n+]3csc(C)c3)c2)cc1 [3-[[3-[Acetyl[2-[4-(tetradecyloxy)phenyl]ethyl]amino]phenyl]methyl]-5-methyl-thiazolium bromide]
[1]; PAF challenge 8.0000E-09 M
  IC50: 2.91 µM
[1]; PAF challenge .0000005 M
  IC50: 4.3 µM
[1]; PAF challenge 8.0000E-09 M, read-out: % INH of PAF induced platelet aggregation
  inhibition at 10 µM: 85%
[1]; [6]
  inhibition at 10 µM: 69%

## CCCCCCCCCCCCCCOc1ccc(CN(C(C)=O)c2cccc(C[n+]3csc(C)c3)c2)cc1.[Br-] [3-[[3-[Acetyl[[4-(tetradecyloxy)phenyl]methyl]amino]phenyl]methyl]-5-methylthiazolium bromide]
[2]; 1 mg/kg I.V.
  % Survival: 83%
[2]; 5 mg/kg P.O.
  % Survival: 52%
[2]; 10 mg/kg P.O.
  % Survival: 75%
[2]; 20 mg/kg P.O.
  % Survival: 75%
[2]; .25 mg/kg I.V.
  % Survival: 100%
[2]; .5 mg/kg I.V.
  % Survival: 83%
[1]; [4]
  inhibition at 10 µM: 98%

## CCCCCCCCCCCCCCCCOc1ccc(OCC(=O)Nc2cccc(C[n+]3csc(C)c3)c2)cc1 [3-[[3-[[[4-(Hexadecyloxy)phenoxy]acetyl]amino]phenyl]methyl]-5-methyl-thiazolium bromide]
[1]; PAF challenge 1.0000E-08 M
  IC50: 4.4 µM
[1]; PAF challenge 5.0000E-08 M
  IC50: 5 µM
[1]; [5]
  inhibition at 10 µM: 93%
[1]; [4]
  inhibition at 10 µM: 72%

## CCCCCCCCCCCCCCOc1ccc(CC(=O)Nc2cccc(C[n+]3ccsc3)c2)cc1.[Br-] [3-[[3-[[[4-(tetradecyloxy)phenyl]acetyl]amino]phenyl]methyl]thiazolium bromide]
[2]; 40 mg/kg P.O.
  % Survival: 40%
[1]; PAF challenge 5E-9 M
  IC50: 0.12 µM
[1]; dose .0000025 M, PAF challenge 5.0000E-08 M, read-out: % INH of PAF induced platelet aggregation
  inhibition at 2.5 µM: 97%
[1]; [4]
  inhibition at 10 µM: 100%
[1]; [7]
  inhibition at 10 µM: 98%
[3]; dose 10 mg/kg i.p.
  % Survival: 63%
[3]; dose 20 mg/kg i.p.
  % Survival: 40%

## CCCCCCCCCCCCCCOc1ccc(CN(C(C)=O)c2ccc(C[n+]3csc(C)c3)cc2)cc1 [3-[[4-[acetyl[[4-(tetradecyloxy)phenyl]methyl]amino]phenyl]methyl]-5-methyl-thiazolium bromide]
[1]; PAF challenge 5.0000E-08 M
  IC50: 2.1 µM
[1]; dose .0000001 M, PAF challenge 5.0000E-08 M, read-out: % INH of PAF induced platelet aggregation
  inhibition at 0.1 µM: 84%

## CCCCCCCCCCCCCCOc1cccc(CC(=O)Nc2ccccc2C[n+]2csc(C)c2)c1 [5-Methyl-3-[[2-[[[3-(tetradecyloxy)phenyl]acetyl]amino]phenyl]methyl]thiazolium bromide]
[1]; PAF challenge 5E-9 M
  IC50: 34 µM
[1]; [4]
  inhibition at 10 µM: 23%
[1]; [7]
  inhibition at 10 µM: 27%

## CCCCCCCCCCCCCCOc1ccc(C(=O)Nc2cccc(C[n+]3csc(C)c3)c2)cc1 [5-Methyl-3-[[3-[[4-(tetradecyloxy)benzoyl]amino]phenyl]methyl]thiazolium bromide]
[1]; PAF challenge 5.0000E-08 M
  IC50: 5.97 µM
[1]; [4]
  inhibition at 10 µM: 54%

## CCCCCCCCCCCCCCOc1ccc(NC(=O)c2cccc(C[n+]3csc(C)c3)c2)cc1 [5-Methyl-3-[[3-[[[4-(tetradecyloxy)phenyl]amino]carbonyl]phenyl]methyl]thiazolium bromide]
[1]; PAF challenge 5.0000E-08 M
  IC50: 2.7 µM
[1]; [4]
  inhibition at 10 µM: 89%

## CCCCCCCCCCCCCCOc1ccc(NC(=O)Nc2cccc(C[n+]3csc(C)c3)c2)cc1 [5-Methyl-3-[[3-[[[[4-(tetradecyloxy)phenyl]amino]carbonyl]amino]phenyl]methyl]thiazolium bromide]
[1]; PAF challenge 5.0000E-08 M
  IC50: 1.5 µM
[1]; PAF challenge .0000001 M
  IC50: 16.9 µM
[1]; [4]
  inhibition at 10 µM: 92%
[1]; dose .00005 M, PAF challenge .0000001 M, read-out: % INH of PAF induced platelet aggregation
  inhibition at 50 µM: 80%

## CCCCCCCCCCCCCCOc1ccc(CN(C(=O)NC)c2cccc(C[n+]3csc(C)c3)c2)cc1.[Br-] [5-methyl-3-[[3-[[(methylamino)carbonyl]-[[4-(tetradecyloxy)phenyl]methyl]amino]phenyl]methyl]-thiazolium bromide]
[1]; PAF challenge 5.0000E-08 M
  IC50: 0.46 µM
[1]; PAF challenge .0000001 M
  IC50: 1.09 µM
[1]; [4]
  inhibition at 10 µM: 90%
[1]; PAF challenge .0000001 M, read-out: % INH of PAF induced platelet aggregation
  inhibition at 10 µM: 95%
[3]; dose 10 mg/kg i.p.
  % Survival: 46%
[3]; dose 20 mg/kg i.p.
  % Survival: 20%

## CCCCCCCCCCCCCCOc1ccc(CC(=O)Nc2ccc(C[n+]3csc(C)c3)cc2)cc1.[Br-] [5-methyl-3-[[4-[[[4-(tetradecyloxy)phenyl]acetyl]amino]phenyl]methyl]-thiazolium bromide]
[2]; 5 mg/kg P.O.
  % Survival: 32%
[2]; 20 mg/kg P.O.
  % Survival: 32%
[1]; PAF challenge 5.0000E-08 M
  IC50: 0.18 µM and 0.32 µM and 1.3 µM
[1]; [4]
  inhibition at 10 µM: 92%

## CCCCCCCCCCCCCCOc1ccc(CC(=O)Nc2cccc(-n3ccnc3C)c2)cc1 [N-[3-(2-methyl-1H-imidazol-1-yl)phenyl]-4-(tetradecyloxy)-benzeneacetamide monohydrochloride]
[1]; PAF challenge 5.0000E-08 M
  IC50: 18.6 µM
[1]; [4]
  inhibition at 10 µM: 34%
